Data as given in patent publication US8349991B2, “Amphiphilic polymers and methods of use thereof” (Massachusetts Institute of Technology, priority 2005, dated 2013).
“Also recorded” adds a separate entry of the source. Where no end group is shown, it is not given here. The star is where a group is joined. Acm = CC(=O)NC*

Experiments:
[1] = Acute oral toxicity testing (LD50); conditions: C57BI/6, mouse, in vivo
Method: Acute oral toxicity testing of intact nanospheres and individual components was carried out to determine the LD50 (median lethal dose) with C57BI/6 (Table 2).

INS-1 cells = assay: Cellular cytotoxicity by MTS after exposure to polymers and reagents; assay type: cell-based; conditions: 1 mg/mL polymer or 0.05 mg/mL dye, 37° C., up to 48 hours post-exposure
Method: Cellular cytotoxicity following exposure to the polymers and reagents: INS-1 cells were incubated with the polymers and/or reagents (1 mg/mL polymer or 0.05 mg/mL dye) at 37° C., and cellular viability was determined by MTS (FIG. 5).

INS cells = conditions: 0.2 mg/mL, 37° C.
Cells = conditions: 0.2 mg/mL, 5 hr, 37° C.
[2] = test system: uMUC-1-negative (U87) tumors; assay: In vivo MR and NIRF imaging of tumor-bearing animals; parameters: species or system mice; conditions: control tumors
Method: (§1) (B) White light (left), near-infrared fluorescent (NIRF) (middle) images, and a color-coded map (right) of mice bearing bilateral underglycosylated mucin-1 antigen uMUC-1-negative (U87) and uMUC-1-positive (LS174T) tumors. NIRF imaging was performed immediately after the MRI session. […] (D) Dual channel fluorescence microscopy of the frozen LS 174T tumor section. Green channel fluorescence from the FITC-labeled EPPT peptide (left) colocalized with Cy5.5 fluorescence derived from Cy5.5-labeled cross-linked iron oxides (middle). […] Magnification bar=10 μm.
(§2) In vivo ^1H-MR imaging was performed on animals bearing bilateral uMUC-1-positive and uMUC-1-negative tumors before and 24 hours after probe injection. […] The same animals were subjected to optical imaging immediately after the MR-imaging session. […] Fluorescence microscopy of excised tumors and muscle tissue gave results consistent with NIRF images. From biodistribution studies with ^125I-CLIO-EPPT, on average uMUC-1-positive tumors accumulated 3.4 times more of the probe than uMUC-1-negative tumors.

[3] = test system: uMUC-1-positive (LS174T) tumors; assay: as above; parameters: species or system mice
Method: as §1, §2

[4] = test system: uMUC-1-positive tumors versus uMUC-1-negative tumors; parameters: species or system mice; conditions: mouse, in vivo
Method: as §2

[5] = test system: human control uMUC-1-negative tumor and normal cell lines; assay: Cell binding assay with 125I-labeled CLIO-EPPT; assay type: cell-based; conditions: 1 hour incubation
Source text: (§3) FIG. 7 depicts a crosslinked iron oxide (CLIO)-EPPT multi-modal imaging probe. (A) The core protein of the MUC-1 tumor antigen. The immunodominant region of the tandem repeat is recognized by the EPPT1 peptide derived from an ASM2 monoclonal antibody (45). (B) Synthesis (left) and scheme of the probe (right). […] Left, overlay of the bright field and FITC channel; middle, overlay of the bright field and Cy5.5 channel; right, overlay of the FITC and Cy5.5 channels. […] Magnification bars=10 μm.
(§4) Cell binding assays (FIG. 7D) were carried out with a variety of human uMUC-1-positive tumor cell lines: ZR-75-1 (breast), BT-20 (breast), HT29 (colon), CAPAN-2 (pancreas), LS174T (colon), and ChaGo-K-1 (lung) as well as human control uMUC-1-negative tumor and normal cell lines.

[6] = test system: human uMUC-1-positive tumor cell lines; assay: Cell binding assay with 125I-labeled CLIO-EPPT; assay type: cell-based
Source text: as §3, §4

[7] = Dynamic light scattering of CLIO-EPPT probes; assay type: physicochemical
Source text: To extend these studies using perfluoro labeled polymer, the same FITC-labeled EPPT1 peptide was used. […] The study with the CLIO-EPPT nanoparticles established test procedures which will be used.

[8] = test system: adenocarcinoma cell lines (BT-20, CAPAN-2, ChaGo-K-1, HT-29, LS174T); assay: In vitro specificity of CLIO-EPPT (flow cytometry, fluorescence microscopy); assay type: cell-based, human
Source text: as §3
(§5) In vitro specificity of CLIO-EPPT for adenocarcinomas was further characterized by flow cytometric analysis of probe binding to selected adenocarcinoma and control cell lines (FIG. 7E). […] Fluorescence microscopy experiments, in which adenocarcinoma and control cells were incubated with the probe, confirmed the fluorescence-activated cell sorting data.

[9] = test system: control uMUC-1-negative cell line U87; assay: as above; assay type: cell-based, human
Source text: as §3, §5

[10] = target: underglycosylated mucin-1 antigen (uMUC-1) (Homo sapiens, UniProt P15941); conditions: read-out: binding constant Kd; cited from earlier work
underglycosylated mucin-1 antigen (uMUC-1), sequence (P15941 24-1255): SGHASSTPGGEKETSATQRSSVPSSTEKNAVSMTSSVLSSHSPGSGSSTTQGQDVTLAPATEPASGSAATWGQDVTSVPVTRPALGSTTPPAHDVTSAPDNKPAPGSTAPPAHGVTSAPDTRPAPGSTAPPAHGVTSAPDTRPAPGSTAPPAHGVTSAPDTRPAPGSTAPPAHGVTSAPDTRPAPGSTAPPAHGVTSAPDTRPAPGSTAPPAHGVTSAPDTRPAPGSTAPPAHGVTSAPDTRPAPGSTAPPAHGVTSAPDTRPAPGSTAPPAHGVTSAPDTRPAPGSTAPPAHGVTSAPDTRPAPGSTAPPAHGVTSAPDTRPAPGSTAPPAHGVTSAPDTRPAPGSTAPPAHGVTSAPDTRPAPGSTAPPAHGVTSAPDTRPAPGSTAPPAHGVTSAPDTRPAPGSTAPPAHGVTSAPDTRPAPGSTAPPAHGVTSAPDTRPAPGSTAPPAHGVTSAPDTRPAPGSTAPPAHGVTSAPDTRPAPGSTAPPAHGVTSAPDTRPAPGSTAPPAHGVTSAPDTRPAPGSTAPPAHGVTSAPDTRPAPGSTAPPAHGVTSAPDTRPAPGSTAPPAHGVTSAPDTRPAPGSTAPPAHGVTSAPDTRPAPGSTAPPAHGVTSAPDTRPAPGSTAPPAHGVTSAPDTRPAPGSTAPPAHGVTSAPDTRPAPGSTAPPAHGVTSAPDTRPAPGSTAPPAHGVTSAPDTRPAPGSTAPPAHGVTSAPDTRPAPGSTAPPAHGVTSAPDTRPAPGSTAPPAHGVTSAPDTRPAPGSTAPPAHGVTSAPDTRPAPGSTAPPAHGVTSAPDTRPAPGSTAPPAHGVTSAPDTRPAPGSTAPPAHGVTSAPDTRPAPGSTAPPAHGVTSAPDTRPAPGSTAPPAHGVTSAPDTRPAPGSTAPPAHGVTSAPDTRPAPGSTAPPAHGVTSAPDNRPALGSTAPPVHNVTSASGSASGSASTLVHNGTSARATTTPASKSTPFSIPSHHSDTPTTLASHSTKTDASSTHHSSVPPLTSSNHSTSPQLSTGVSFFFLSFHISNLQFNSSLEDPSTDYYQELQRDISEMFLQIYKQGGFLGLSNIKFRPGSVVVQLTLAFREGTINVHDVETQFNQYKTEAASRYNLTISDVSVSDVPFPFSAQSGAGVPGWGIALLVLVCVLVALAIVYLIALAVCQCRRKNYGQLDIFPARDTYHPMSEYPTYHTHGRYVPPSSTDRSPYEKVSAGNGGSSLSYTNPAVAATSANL

N[C@@H](CC(=O)O)C(=O)O [Aspartic Acid]
LD50 [1]: 20000 mg/kg

CCN(CC)c1ccc2c(-c3ccccc3C(=O)O)c3ccc(=[N+](CC)CC)cc-3oc2c1 [Rhodamine, Rhodamine B]
cytotoxicity (cellular viability by MTS) (INS-1 cells): cytotoxic effects were readily observed

COc1cccc2c1C(=O)c1c(O)c3c(c(O)c1C2=O)C[C@@](O)(C(=O)CO)C[C@@H]3O[C@H]1C[C@H](N)[C@H](O)[C@H](C)O1 [doxorubicin]
rate of cell death (MTS) (INS cells): comparable rate of cell death | intracellular localization (confocal microscopy) (Cells): largely confined to the nucleus

CLIO-EPPT: cross-linked iron oxide nanoparticle carrying Cy5.5 dye and FITC-labeled EPPT1 peptides on the dextran coat; radioiodinated for binding and biodistribution (YC(Acm)AREPPTRTFAYWG-{K(FITC)-Lys}; not fully specified; printed as Y-C(ACM)-A-R-E-P-P-T-R-T-F-A-Y-W-G-K(FITC)K; also: conjugated to CLIO iron oxide nanoparticle with Cy5.5 dye, radioiodinated)
NIRF signal [2]: no significant signal | dual channel fluorescence microscopy of excised tumors [2]: no signal | decrease in signal intensity of T2-weighted MR images ([2]; 24 hours after probe injection): 13-18% | decrease in signal intensity of T2-weighted MR images ([3]; LS174T tumors, 24 h after probe injection): 52% | dual channel fluorescence microscopy of excised tumors ([3]; uMUC-1-positive tumors): colocalization of FITC and Cy5.5 signals | NIRF signal ([3]; uMUC-1-positive tumors, immediately after MR-imaging session): high intensity NIRF signal; also recorded: strong NIRF signal | probe accumulation in uMUC-1-positive tumors relative to uMUC-1-negative tumors [4]: 3.4 times | nanoparticle uptake versus uMUC-1-positive tumor cell lines [5]: much lower nanoparticle uptake | CLIO-EPPT nanoparticles bound per cell ([6]; 125I-labeled, 1 hour incubation): 10^7-10^8 nanoparticles per cell | accumulation versus uMUC-1-negative tumor or normal cells ([6]; cell binding assay, P<0.05): significantly more | hydrodynamic diameter [7]: about 36 nm | probe binding by flow cytometry [8]: bound the probe; also recorded: a shift in fluorescence in the FLI and FL4 channels | staining by fluorescence microscopy ([8]; FITC and Cy5.5 channels): stained strongly; also recorded: colocalization of the FITC and Cy5.5 signal | staining by fluorescence microscopy ([9]; U87, FITC or Cy5.5 channels): no fluorescence was observed | probe binding by flow cytometry ([9]; control cell line U87): no cell binding; also recorded: no shift

synthetic peptide YCAREPPTRTFAYWG (SEQ ID NO: 1) derived from CDR3 Vh region of monoclonal antibody ASM2 (not fully specified (C-terminus); listed as Homo sapiens) [EPPT1]
Kd [10]: 20 µM
